Reference: patent publication US20250302815A1, “PROTEIN TYROSINE PHOSPHATASE TARGETING LIGANDS” (CALICO LIFE SCIENCES LLC, priority 2021, published 2025)

Key:
PTPN2 (B16F10.4 cells) = biological target: T1, PTPN2 (B16F10.4 cells) (Mus musculus, UniProt Q06180); test: HiBiT Degradation B16F10.4 PTPN2; type: cell-based; conditions: 24.0 hours
T1 construct: HiBiT; host or cells: B16F10.4
T1 sequence (Q06180 1-406): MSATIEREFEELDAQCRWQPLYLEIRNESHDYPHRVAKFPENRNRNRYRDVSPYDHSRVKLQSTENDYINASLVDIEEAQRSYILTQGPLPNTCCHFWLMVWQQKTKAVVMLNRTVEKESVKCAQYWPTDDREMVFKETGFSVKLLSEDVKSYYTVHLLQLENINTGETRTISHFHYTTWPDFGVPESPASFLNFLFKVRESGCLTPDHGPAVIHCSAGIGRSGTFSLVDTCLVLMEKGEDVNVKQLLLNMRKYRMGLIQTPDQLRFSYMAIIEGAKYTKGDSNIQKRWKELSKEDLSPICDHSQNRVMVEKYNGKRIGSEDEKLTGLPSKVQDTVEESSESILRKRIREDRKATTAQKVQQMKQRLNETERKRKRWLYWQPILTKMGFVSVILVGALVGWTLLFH

[1] = biological target: T2, PTPN2 (HiBIT-PTPN2 in 293T.109 cells) (Homo sapiens, UniProt P17706); test: HiBiT Degradation 293T.109 PTPN2 (Nano-Glo HiBiT Lytic Assay); type: cell-based; conditions: 24.0 hours
T2 construct: expressed in transfected cells; host or cells: 293T.109 (293T WT from ATCC)
T2 sequence (P17706 1-415): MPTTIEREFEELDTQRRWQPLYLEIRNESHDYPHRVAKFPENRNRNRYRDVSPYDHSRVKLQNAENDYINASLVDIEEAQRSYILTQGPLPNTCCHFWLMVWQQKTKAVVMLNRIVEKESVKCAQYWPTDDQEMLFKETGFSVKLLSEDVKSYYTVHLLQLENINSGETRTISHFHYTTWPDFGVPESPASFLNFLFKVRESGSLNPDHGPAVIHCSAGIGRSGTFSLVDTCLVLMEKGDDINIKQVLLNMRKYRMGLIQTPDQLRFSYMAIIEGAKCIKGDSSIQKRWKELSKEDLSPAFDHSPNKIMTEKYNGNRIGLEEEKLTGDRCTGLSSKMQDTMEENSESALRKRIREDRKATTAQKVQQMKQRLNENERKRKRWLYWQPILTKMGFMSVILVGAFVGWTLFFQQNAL
Outline: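 Degradation read-out: lytic HiBiT luminescence after 24 h treatment (37 °C, 5% CO2) of 5000 293T cells per well expressing HiBiT-fused PTPN2 from an N-terminal tag. Dosing was 11 points, half-log steps down from 10 μM, in duplicate; vehicle-treated and no-reagent wells served as controls.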

| SMILES | DC50 (PTPN2 (B16F10.4 cells)) | DC50 [1] |
| --- | --- | --- |
| CC1(C)C[C@@H](Nc2cccc(-c3sc(C(=O)O)c(OCC(=O)O)c3Cl)c2)CCN1S(=O)(=O)Cc1cccc(NC(=O)N2CCN(C(=O)CNc3cccc4c3CN(C3CCC(=O)NC3=O)C4=O)CC2)c1 (stereo partly drawn) [Example 62, 3-(carboxymethoxy)-4-chloro-5-(3-(((4S)-1-((3-(4-((2-(2,6-dioxopiperidin-3-yl)-1-oxoisoindolin-4-yl)glycyl)piperazine-1-carboxamido)benzyl)sulfonyl)-2,2-dimethylpiperidin-4-yl)amino)phenyl)thiophene-2-carboxylic acid] | 200 to 1000 nM | 50 to 200 nM |
| CC1(C)C[C@@H](Nc2cccc(-c3sc(C(=O)O)c(OCC(=O)O)c3Cl)c2)CCN1S(=O)(=O)Cc1cccc(NC(=O)C2CCN(C(=O)COc3cccc4c3CN(C3CCC(=O)NC3=O)C4=O)CC2)c1 (stereo partly drawn) [Example 63, 3-(carboxymethoxy)-4-chloro-5-(3-(((4S)-1-((3-(1-(2-((2-(2,6-dioxopiperidin-3-yl)-1-oxoisoindolin-4-yl)oxy)acetyl)piperidine-4-carboxamido)benzyl)sulfonyl)-2,2-dimethylpiperidin-4-yl)amino)phenyl)thiophene-2-carboxylic acid] | 200 to 1000 nM | 50 to 200 nM |
| CC1(C)C[C@@H](Nc2cccc(-c3sc(C(=O)O)c(OCC(=O)O)c3Cl)c2)CCN1S(=O)(=O)Cc1cccc(NC(=O)N2CCN(C(=O)CCc3cccc4c3CN(C3CCC(=O)NC3=O)C4=O)CC2)c1 (some centres unmarked) [Example 64] | 200 to 1000 nM | 200 to 1000 nM |
| O=C(O)COc1c(C(=O)O)sc(-c2cccc(NC3CCN(S(=O)(=O)Cc4cccc(NC(=O)N5CCC(Oc6cccc7c6CN(C6CCC(=O)NC6=O)C7=O)CC5)c4)CC3)c2)c1Cl (centres unmarked) [Example 65] | 200 to 1000 nM | 200 to 1000 nM |
| CN(C(=O)C1CCN(C(=O)CNc2cccc3c2CN(C2CCC(=O)NC2=O)C3=O)CC1)c1cccc(CS(=O)(=O)N2CC[C@@H](Nc3cccc(-c4sc(C(=O)O)c(OCC(=O)O)c4Cl)c3)CC2(C)C)c1 (stereo partly drawn) [Example 66, 3-(carboxymethoxy)-4-chloro-5-(3-(((4R)-1-((3-(1-((2-(2,6-dioxopiperidin-3-yl)-1-oxoisoindolin-4-yl)glycyl)-N-methylpiperidine-4-carboxamido)benzyl)sulfonyl)-2,2-dimethylpiperidin-4-yl)amino)phenyl)thiophene-2-carboxylic acid] | ≥ 1000 nM | 200 to 1000 nM |
| CN(C(=O)C1CCN(C(=O)CNc2cccc3c2CN(C2CCC(=O)NC2=O)C3=O)CC1)c1cccc(CS(=O)(=O)N2CC[C@H](Nc3cccc(-c4sc(C(=O)O)c(OCC(=O)O)c4Cl)c3)CC2(C)C)c1 (stereo partly drawn) [Example 67, 3-(carboxymethoxy)-4-chloro-5-(3-(((4S)-1-((3-(1-((2-(2,6-dioxopiperidin-3-yl)-1-oxoisoindolin-4-yl)glycyl)-N-methylpiperidine-4-carboxamido)benzyl)sulfonyl)-2,2-dimethylpiperidin-4-yl)amino)phenyl)thiophene-2-carboxylic acid] | ≥ 1000 nM | 200 to 1000 nM |
| CC1(C)C[C@@H](Nc2cccc(-c3sc(C(=O)O)c(OCC(=O)O)c3Cl)c2)CCN1S(=O)(=O)Cc1cccc(NC(=O)N2CCC(c3ccc4c(c3)oc(=O)n4C3CCC(=O)NC3=O)CC2)c1 (stereo partly drawn) [Example 68, 3-(carboxymethoxy)-4-chloro-5-[3-[[(4S)-1-[[3-[[4-[3-(2,6-dioxo-3-piperidyl)-2-oxo-1,3-benzoxazol-6-yl]piperidine-1-carbonyl]amino]phenyl]methylsulfonyl]-2,2-dimethyl-4-piperidyl]amino]phenyl]thiophene-2-carboxylic acid] | 50 to 200 nM | 50 to 200 nM |
| Cn1c(=O)n(C2CCC(=O)NC2=O)c2ccc(C3CCN(CC(=O)Nc4cccc(CS(=O)(=O)N5CCC(Nc6cccc(-c7sc(C(=O)O)c(OCC(=O)O)c7Cl)c6)CC5(C)C)c4)CC3)cc21 [Example 69, 3-(carboxymethoxy)-4-chloro-5-[3-[[(4S)-1-[[3-[2-[4-[1-(2,6-dioxo-3-piperidyl)-3-methyl-2-oxo-benzimidazol-S-yl]-1-piperidyl]acetyl]amino]phenyl]methylsulfonyl]-2,2-dimethyl-4-piperidyl]amino]phenyl]thiophene-2-carboxylic acid] | 50 to 200 nM | < 50 nM |
| CC1(C)C[C@@H](Nc2cccc(-c3sc(C(=O)O)c(OCC(=O)O)c3Cl)c2)CCN1S(=O)(=O)Cc1cccc(NC(=O)CN2CCC(c3ccc4c(c3)oc(=O)n4C3CCC(=O)NC3=O)CC2)c1 (stereo partly drawn) [Example 70, 3-(Carboxymethoxy)-4-chloro-5-[3-[[(4S)-1-[[3-[[2-[4-[3-(2,6-dioxo-3-piperidyl)-2-oxo-1,3-benzoxazol-6-yl]-1-piperidyl]acetyl]amino]phenyl]methylsulfonyl]-2,2-dimethyl-4-piperidyl]amino]phenyl]thiophene-2-carboxylic acid] | 200 to 1000 nM | 50 to 200 nM |
| CN(C(=O)CCN1CCC(Nc2cccc3c2CN(C2CCC(=O)NC2=O)C3=O)CC1)c1cccc(CS(=O)(=O)N2CCC(Nc3cccc(-c4sc(C(=O)O)c(OCC(=O)O)c4Cl)c3)CC2(C)C)c1 (centres unmarked) [Example 71, 3-(carboxymethoxy)-4-chloro-5-(3-((1-((3-(3-(4-((2-(2,6-dioxopiperidin-3-yl)-1-oxoisoindolin-4-yl)amino)piperidin-1-yl)-N-methylpropanamido)benzyl)sulfonyl)-2,2-dimethylpiperidin-4-yl)amino)phenyl)thiophene-2-carboxylic acid] | ≥ 1000 nM | 50 to 200 nM |
| CC1(C)C[C@@H](Nc2cccc(-c3sc(C(=O)O)c(OCC(=O)O)c3Cl)c2)CCN1S(=O)(=O)Cc1cccc(NC(=O)N2CCC(Oc3cccc4c3CN(C3CCC(=O)NC3=O)C4=O)CC2)c1 (some centres unmarked) [Example 72] | 50 to 200 nM | 50 to 200 nM |

More lines, now with the values ahead:

| DC50 (PTPN2 (B16F10.4 cells)) | DC50 [1] | SMILES |
| --- | --- | --- |
| ≥ 1000 nM | 50 to 200 nM | O=C(O)COc1c(C(=O)O)sc(-c2cccc(NC3CCN(S(=O)(=O)Cc4cccc(NC(=O)C5CCN(C(=O)CNc6cccc7c6CN(C6CCC(=O)NC6=O)C7=O)CC5)c4F)CC3)c2)c1Cl (centres unmarked) [Example 73, 3-(carboxymethoxy)-4-chloro-5-(3-((1-((3-(1-((2-(2,6-dioxopiperidin-3-yl)-1-oxoisoindolin-4-yl)glycyl)piperidine-4-carboxamido)-2-fluorobenzyl)sulfonyl)piperidin-4-yl)amino)phenyl)thiophene-2-carboxylic acid] |
| ≥ 1000 nM | < 50 nM | CC1(C)C[C@@H](Nc2cccc(-c3sc(C(=O)O)c(OCC(=O)O)c3Cl)c2)CCN1S(=O)(=O)Cc1cccc(NC(=O)C2CN(C(=O)COc3cccc4c3CN(C3CCC(=O)NC3=O)C4=O)C2)c1 (some centres unmarked) [Example 74] |
| ≥ 1000 nM | < 50 nM | O=C(O)COc1c(C(=O)O)sc(-c2cccc(NC3CCN(S(=O)(=O)Cc4cccc(NC(=O)C5CN(C(=O)CNc6cccc7c6CN(C6CCC(=O)NC6=O)C7=O)C5)c4F)CC3)c2)c1Cl (centres unmarked) [Example 75] |
| ≥ 1000 nM | 200 to 1000 nM | CC1(C)C[C@@H](Nc2cccc(-c3sc(C(=O)O)c(OCC(=O)O)c3Cl)c2)CCN1S(=O)(=O)Cc1cccc(NC(=O)N2CCC(Oc3ccc4c(c3)CN(C3CCC(=O)NC3=O)C4=O)CC2)c1 (some centres unmarked) [Example 76] |
| ≥ 1000 nM | 50 to 200 nM | O=C(O)COc1c(C(=O)O)sc(-c2cccc(NC3CCN(S(=O)(=O)Cc4ccc(F)c(NC(=O)C5CCN(C(=O)CNc6cccc7c6CN(C6CCC(=O)NC6=O)C7=O)CC5)c4)CC3)c2)c1Cl (centres unmarked) [Example 77] |
| ≥ 1000 nM | < 50 nM | O=C(O)COc1c(C(=O)O)sc(-c2cccc(NC3CCN(S(=O)(=O)Cc4ccc(F)c(NC(=O)C5CN(C(=O)CNc6cccc7c6CN(C6CCC(=O)NC6=O)C7=O)C5)c4)CC3)c2)c1Cl (centres unmarked) [Example 78] |
| 50 to 200 nM | < 50 nM | Cn1c(=O)n(C2CCC(=O)NC2=O)c2ccc(NC3CN(C(=O)Nc4cccc(CS(=O)(=O)N5CC[C@H](Nc6cccc(-c7sc(C(=O)O)c(OCC(=O)O)c7Cl)c6)CC5(C)C)c4)C3)cc21 (some centres unmarked) [Example 79] |
| 50 to 200 nM | 50 to 200 nM | Cn1c(=O)n(C2CCC(=O)NC2=O)c2ccc(N3CCN(C(=O)Nc4cccc(CS(=O)(=O)N5CC[C@H](Nc6cccc(-c7sc(C(=O)O)c(OCC(=O)O)c7Cl)c6)CC5(C)C)c4)CC3)cc21 (stereo partly drawn) [Example 80, 3-(Carboxymethoxy)-4-chloro-5-[3-[[(4S)-1-[[3-[[4-[1-(2,6-dioxo-3-piperidyl)-3-methyl-2-oxo-benzimidazol-5-yl]piperazine-1-carbonyl]amino]phenyl]methylsulfonyl]-2,2-dimethyl-4-piperidyl]amino]phenyl]thiophene-2-carboxylic acid] |
